Changes are numbered by the printed parent chain. Read-outs that look alike come from different tables or passages of the source.

Experiment [1] addresses T1, E218Q mutant 5-HT3 receptor (Mus musculus, UniProt P23979, E218Q).
T1 sequence (P23979 24-489 E218Q): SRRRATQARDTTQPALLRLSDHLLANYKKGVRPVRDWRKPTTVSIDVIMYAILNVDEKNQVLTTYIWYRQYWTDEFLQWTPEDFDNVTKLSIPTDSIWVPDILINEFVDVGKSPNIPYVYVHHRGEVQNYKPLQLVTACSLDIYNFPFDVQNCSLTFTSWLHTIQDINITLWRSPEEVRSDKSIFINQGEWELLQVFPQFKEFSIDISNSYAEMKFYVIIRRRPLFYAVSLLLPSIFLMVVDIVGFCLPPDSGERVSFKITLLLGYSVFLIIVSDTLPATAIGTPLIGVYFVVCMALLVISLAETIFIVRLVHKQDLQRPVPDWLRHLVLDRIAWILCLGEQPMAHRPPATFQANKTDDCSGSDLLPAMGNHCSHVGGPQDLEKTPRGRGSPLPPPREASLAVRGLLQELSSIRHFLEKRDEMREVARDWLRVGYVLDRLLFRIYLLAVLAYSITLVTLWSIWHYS
Format: cell-based. The conditions noted are these: 1 mM 5-HT, n > 50.

For experiment [2], the target named is T2, wild type 5-HT3 receptors (Mus musculus, UniProt P23979).
T2 sequence (P23979 24-489): T1 sequence (P23979 24-489 E218Q) with Q195E

The target of experiment [3] is T3, V219L mutant 5-HT3 receptor (Mus musculus, UniProt P23979, V219L).
T3 sequence (P23979 24-489 V219L): T1 sequence (P23979 24-489 E218Q) with Q195E, V196L
The experiment can be described thus: Whole-cell patch-clamp, V219L mutant in HEK 293 cells. Format: cell-based. The note with it: 1 mM 5-HT, n > 50. (In general: Patch clamp records ionic current or voltage across a cell membrane.)

Experiment [4] deals with T4, D204N mutant 5-HT3 receptor (Mus musculus, UniProt P23979, D204N).
T4 sequence (P23979 24-489 D204N): T1 sequence (P23979 24-489 E218Q) with D181N, Q195E
Nature of the experiment: Whole-cell patch-clamp, D204N mutant in HEK 293 cells. Format: cell-based. The note with it: 1 mM 5-HT, n > 50.

For experiment [5], the target named is T5, E277A/S297R mutant 5-HT3 receptor (Mus musculus, UniProt P23979, E277A/S297R).
T5 sequence (P23979 24-489 E277A/S297R): T1 sequence (P23979 24-489 E218Q) with Q195E, E254A, S274R
In kind it is cell-based. The note with it: no added MgCl2.

For experiment [6], the target named is T6, E215Q mutant 5-HT3 receptor (Mus musculus, UniProt P23979, E215Q).
T6 sequence (P23979 24-489 E215Q): T1 sequence (P23979 24-489 E218Q) with E192Q, Q195E
The note with it: no added MgCl2.

Experiment [7] deals with T7, E213Q mutant 5-HT3 receptor (Mus musculus, UniProt P23979, E213Q).
T7 sequence (P23979 24-489 E213Q): T1 sequence (P23979 24-489 E218Q) with E190Q, Q195E
Nature of the experiment: Whole-cell patch-clamp, 5-HT dose-response, E213Q mutant in HEK 293 cells. In kind it is cell-based. The note with it: for Hill slope: E213Q, no added MgCl2.

For the compound `NCCc1c[nH]c2ccc(O)cc12` [5-HT, 5-hydroxytryptamine], the “current response to 5-HT” value in experiment [1], in experiment [3] and in experiment [4] was “unable to elicit a response” each time. Besides, the Hill slope (usually the slope factor of the fitted curve) in experiment [2] (Ext. Ca2+ 0 mM, no added MgCl2) worked out at 2.39 ± 0.18; in experiment [2] (Ext. Ca2+ 1 mM, no added MgCl2), 2.24 ± 0.19; in experiment [2] (Ext. Ca2+ 3 mM, no added MgCl2), 2.08 ± 0.19; in experiment [2] (Ext. Ca2+ 10 mM, no added MgCl2), 2.08 ± 0.26; in experiment [2] (physiological conditions (1.0 mM CaCl2, 1.0 mM MgCl2), n = 23), 2.31 ± 0.25; in experiment [5] (Ext. Ca2+ 0 mM), 2.04 ± 0.16. Moreover, the Hill slope in experiment [5] (Ext. Ca2+ 1 mM) was determined as 1.64 ± 0.25; in experiment [5] (Ext. Ca2+ 3 mM), 1.62 ± 0.30; in experiment [5] (Ext. Ca2+ 10 mM) it was 1.35 ± 0.18; in experiment [6] (Ext. Ca2+ 0 mM) it was 2.98 ± 0.11; in experiment [6] (Ext. Ca2+ 1 mM) it was 3.09 ± 0.39; in experiment [6] (Ext. Ca2+ 3 mM), 2.54 ± 0.19. Besides, the Hill slope is listed as 1.90 ± 0.24 in experiment [6] (Ext. Ca2+ 10 mM); 2.45 ± 0.22 in experiment [7] (Ext. Ca2+ 0 mM); 2.39 ± 0.16 in experiment [7] (Ext. Ca2+ 1 mM); 2.42 ± 0.16 in experiment [7] (Ext. Ca2+ 3 mM); 1.62 ± 0.19 in experiment [7] (Ext. Ca2+ 10 mM). Also, the I/I max in experiment [5] (Ext. Ca2+ 3 mM) was determined as 0.99 ± 0.03; in experiment [5] (Ext. Ca2+ 10 mM), 0.96 ± 0.02. Further, in experiment [7] (E213Q versus wild type), the “rates of desensitisation, faster than wild type responses” value is on record as roughly 4 fold.
